Results as given in article PMC10224356, “Trisubstituted 1,3,5-Triazines as Histamine H4 Receptor Antagonists with Promising Activity In Vivo” (Molecules, 2023).

What was measured:
[1] = PAMPA assay (blood-brain barrier permeability); type: in vitro ADME; details: 200 µM, 5 h
Procedure: This test is a popular method for estimating the possibility of crossing BBB through passive transport. […] Caffeine was used as a standard well-permeable compound.
The Gentest^TM PAMPA Plate System, purchased from Corning (Tewksbury, MA, USA), was used for permeability evaluation. Caffeine (a reference) and the compound tested were dissolved in DMSO (10 mM stocks) and after dilution to 200 μM in PBS (pH 7.4), added to donor wells. Then, after incubation for 5 h at room temperature, concentrations of tested compounds in donor and acceptor wells were estimated by the mass spectra (LC/MS) method as described previously. The UPLC/MS Waters […] TQD system with the TQ Detector (Waters, Milford, CT, USA) was used for this detection. The assay was performed in triplicate. The permeability value (Pe) was calculated using the formula described by Chen et al..

[2] = biological target: T1, hH4R (Homo sapiens, UniProt Q9H3N8); assay: cAMP accumulation assay (LANCE Ultra cAMP, CHO-K1 cells stably expressing hH4R); type: cell-based; parameters: expressed in transfected cells; details: antagonist mode
[3] = biological target: T1, hH4R; assay: β-arrestin recruitment assay (LiveBLAzer, Tango-H4-bla U2OS cells); type: cell-based; parameters: expressed in transfected cells; host or cells: Tango-H4-bla U2OS cells
Procedure: Compounds were tested using LiveBLAzer^TM assay and Tango-H4-bla U2OS cells, allowing the estimation of the percentage of β-arrestin recruitment in response to tested treatments.
All used media and reagents except DMSO and tested compounds were purchased from ThermoFisher Scientific, Waltham, MA, USA. DMSO was from CarlRoth (Karlsruhe, Germany) and histamine was from Sigma Aldrich (Darmstadt, Germany). […] The day before the experiment cells were collected from the culture flask with trypsin and seeded in 384 well black-wall, clear-bottom plate (PerkinElmer, Waltham, MA, USA) in concentration 10,000 cells/well in FreeStyle medium. After 24 h of incubation, the cells were checked under the microscope and the dilutions of tested compounds were prepared and added to the wells. In agonist mode compounds were added to the wells and plates were placed in the incubator (HERAcell240, Heraeus, Hanau, Germany) for 16 h. In antagonist mode, first, the compounds were added to the wells, plates were incubated for 30 min, then histamine solution (corresponding to EC80—500 nM) was added and plates were put in the incubator for 16 h. After this time β-lactamase substrate mixture was prepared and added to wells (8 µL/well). Cells were incubated for 2 h at room temperature in the dark then the signal was read using an EnSpire microplate reader (PerkinElmer, Waltham, MA, USA). Drawing of dose-dependent curves and IC50 calculation for compounds were made using GraphPad Prism 6 (GraphPad Software, San Diego, CA, USA).

[4] = biological target: T2, human histamine H4 receptor (Homo sapiens, UniProt Q9H3N8); details: ref 57 (Grosicki et al.); read-out: hH4R Ki; cited from earlier work
T2 construct: made in house; host or cells: Sf9 cells (membrane preparations)

[5] = biological target: T1, hH4R; assay: cAMP accumulation assay (LANCE Ultra cAMP, CHO-K1 cells stably expressing hH4R); type: cell-based; parameters: expressed in transfected cells
Procedure: Intrinsic activity via the Gα subunit was measured using a LANCE Ultra cAMP detection kit and CHO-K1 cells stably expressing hH4R. Adenyl cyclase was stimulated by forskolin (10 µM).
Intrinsic activity in G protein-dependent pathway was measured with homogenous TR-FRET immunoassay, using LANCE Ultra cAMP kit and CHO-K1 H4R cell line or γ-irradiated recombinant CHO-K1 H4R cells (all from PerkinElmer). […] If the CHO-K1 H4R cell line was used it had been cultivated in DMEM/F12 10% FBS 400 µg/mL geneticin and passaged three times a week. […] The antagonist activity was measured in a white, opaque, 384-well microplate (PerkinElmer) with a total volume of 20 µL. […] After incubation, 5 µL of europium chelate-labelled cAMP tracer and 5 µl of ULight-labelled anti-cAMP mAb working solutions were added, mixed and incubated for 1 h. TR-FRET signal was read using a microplate reader (PerkinElmer, Waltham, MA, USA).

[6] = system: mice; assay: Histamine-induced pruritus; type: in vivo; details: 10 mg/kg, 60 min observation (control 62.11 ± 9.4)
Procedure: Intradermal injection of histamine induced scratching bouts in the amount of 62.11 ± 9.4. […].
(§1) The surface (around 2 cm^2) of the mice’s nape was shaved at least 2 days prior to experiments. On the day of the experiment, mice were individually placed in plastic chambers (15 × 15 × 30 cm) and after the 30 min habituation period, they were given an intradermal (i.d.) injection of histamine dihydrochloride (10 µmol/site) or chloroquine (CQ, 200 µg/site), which were dissolved in physiological saline and administrated in the constant volume of 20 μL. Immediately after the injection, scratching (series of movements considered as a single scratching bout) of the injected site by the hind paw was counted for 60 min or 30 min after histamine and CQ administration, respectively. Before pruritogens injection different groups of mice were treated i.p. with vehicle (10 mL/kg, negative control) or the dose–response of investigated compound.
(§2) Figure 9 The effect of compound 6 and reference compound pyrilamine (Pyr) on the number of scratching bouts during 60 min-long observation in histamine-induced pruritus (A) and 30 min-long observation in chloroquine-induced pruritus (B). The tested compound or vehicle (1% solution of Tween 80) was administered intraperitoneally (i.p.) 30 min before the intradermal (i.d.) injection of histamine or chloroquine. The results are presented as bar plots showing the mean ± SEM. Statistical analysis: one-way ANOVA followed by Dunnett’s post hoc test, * p < 0.05, ** p < 0.01, *** p < 0.001, n = 8–10 mice per group.

[7] = system: mice; assay: Chloroquine-induced pruritus; type: in vivo; details: 10 mg/kg, 30 min observation
Source text: When comparing the activity of the tested in both used models, it should be noted that the efficacy (higher maximal effect) and potency (lower doses needed to obtain the same result) of the compound were better in histamine-induced pruritus. Nevertheless, compound 6 was also active in histamine-independent itch, which contrasts with the activity of pyrilamine representing a commonly used drug in the treatment of pruritus. […] The wide spectrum of antipruritic activity of compound 6 is very promising, considering that histamine-independent itch is still a crucial clinical problem in pruritus treatment.
as §1, §2

T1 sequence (Q9H3N8 whole entry): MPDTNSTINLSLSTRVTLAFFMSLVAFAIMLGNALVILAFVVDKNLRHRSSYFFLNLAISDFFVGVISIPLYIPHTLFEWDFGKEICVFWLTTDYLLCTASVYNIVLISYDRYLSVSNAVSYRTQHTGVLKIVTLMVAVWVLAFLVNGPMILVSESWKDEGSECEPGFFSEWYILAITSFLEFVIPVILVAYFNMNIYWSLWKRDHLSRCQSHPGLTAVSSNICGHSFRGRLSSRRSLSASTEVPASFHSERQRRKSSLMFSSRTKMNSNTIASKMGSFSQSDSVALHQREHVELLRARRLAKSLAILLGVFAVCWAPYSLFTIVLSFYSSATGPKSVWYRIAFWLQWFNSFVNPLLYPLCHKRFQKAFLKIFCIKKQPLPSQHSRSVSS
T2 sequence (Q9H3N8 whole entry): as above

Cn1c(=O)c2c(ncn2C)n(C)c1=O [Caffeine]
Mass Retention (R) [1]: 1.54% | Pe (permeability coefficient) ± SD ([1]; PBS pH 7.4, permeable if Pe > 1.5 × 10^−6 cm/s): 9.78 ± 1.75 10^−6 cm/s | Mass Retention (R) ([1]; listed as caffeine): 1.54%

CN1CCN(c2nc(N)nc(CC3=CCCCC3)n2)CC1 [Compound 8, 4-(Cyclohexenylmethyl)-6-(4-methylpiperazin-1-yl)-1,3,5-triazin-2-amine]
cAMP hH4R % of max. Antagonist Activity at 10 µM [2]: 98% | IC50 ([3]; antagonist mode, histamine 500 nM (EC80), Tango-H4-bla U2OS cells, read-out: β-arrestin hH4R IC50 ± SEM): 41 ± 6 nM | β-arrestin hH4R % of max. Antagonist Activity at 10 µM ([3]; at 10 µM, antagonist mode): 102% | Kb ([3]; calculated from IC50 by Leff–Dougall variant of Cheng–Prusoff equation, read-out: pKb β-arrestin ± SEM (converted)): 6.76 nM | Ki [4]: 4700 nM | IC50 ([5]; antagonist mode, forskolin 10 µM, histamine 140 nM, CHO-K1 hH4R cells, read-out: cAMP hH4R IC50 ± SEM): 743 ± 30 nM | Kb ([5]; calculated from IC50 by Leff–Dougall variant of Cheng–Prusoff equation, read-out: pKb cAMP ± SEM (converted)): 263 nM | melting point: 149 to 153 °C

COc1ccc(CN(CCN(C)C)c2ccccn2)cc1 [pyrilamine, reference compound]
Number of scratch bouts, histamine-induced pruritus [6]: 28.56 ± 3.55 scratch bouts | Effect on scratching behaviour, chloroquine-induced pruritus [7]: did not significantly reduce scratching behaviour
